The record followed here is patent US20240156800A1, “EP300 DEGRADER AND USES THEREOF IN NEUROBLASTOMA” (DANA-FARBER CANCER INSTITUTE, INC., priority 2021, published 2024).

In one test the target is T1, EP300 (Homo sapiens, UniProt Q09472).
T1 construct: Cells growing in culture were lysed for whole cell lysates; endogenous in cells; host or cells: Kelly, NGP, SIMA, BE2C neuroblastoma cells; Kelly xenografts in NSG mice
Nature of the test: Immunohistochemistry of EP300 in Kelly cell xenografts. The test is classed as in vivo. To be noted: 40 mg/Kg once daily. Here is the method:
Separately, eight animals were xenografted as described above, and treated with vehicle (n=4) or JQAD1 (n=4) at 40 mg/kg IP daily for 14 days. These animals were sacrificed at day 14, following which tumor was extracted, and divided for immunohistochemical analysis or analysis of RNA expression by RNA sequencing (RNA-seq). Immunohistochemistry was performed on the Leica® Bond™ III automated staining platform. Antibody EP300 from Cell Signaling Technology®, catalog number 86377, clone D8Z4E, was run at 1:50 dilution using the Leica® Biosystems Refine Detection Kit with citrate antigen retrieval. Antibody KAT3A/CBP (catalog number ab2832, polyclonal, Abcam) was run at 1:200 using the Leica® Biosystems Refine Detection Kit with ethylenediaminetetraacetic acid (EDTA) antigen retrieval.

The next test addresses T2, CBP (Mus musculus, UniProt P45481).
T2 construct: from tissue; host or cells: liver of Balb/c Crbn^ILE391VAL knock-in mice
Briefly: Immunohistochemistry of CBP in liver of Crbn ILE391VAL knockin mice. The settings on record: 40 mg/Kg IP daily, 14 days. The test is classed as in vivo. The procedure: For toxicity studies, four female CD1 mice (Charles River Laboratories) were injected intraperitoneally (IP) with single doses of 10 mg/Kg (R,S)-JQAD1 solubilized in 10% hydroxypropyl β-cyclodextrin (Sigma-Aldrich®) in sterile water. Following injection, blood concentration of (R,S)-JQAD1 was measured by serial measurements of animal serum at time points out to 24 h, by liquid chromatography with tandem mass spectrometry (LC-MS/MS) analysis. Pharmacokinetics were performed at ChemPartner in Shanghai, China, using LC-MS/MS method and pharmacokinetics parameters (Tmax, Cmax, T1/2, AUC, etc.) calculated with WinNonlin® V 6.2 statistics software (Pharsight Corporation) using a noncompartmental model. For maximally tolerated dose (MTD) testing, six female CD1 mice were treated with daily IP doses of (R,S)-JQAD1 at 10, 20, or 40 mg/kg. Animals were monitored for animal weight, grooming and behavior daily without noted effects. […] Animal weights, behavior and grooming were monitored daily, for a total of 21 days. […] Blood samples were obtained by retro-orbital puncture and blood analyzed at the Small Animal Imaging Facility at Beth Israel Deaconess Medical Center (Boston, MA), on a Hemavet® 9500FS (Drew Scientific) for blood counts, creatinine, AST, ALT, ALP, GGTP, and BUN measurements. […]

For test [1], the system named is Kelly, NGP and BE2C NB cells. Briefly: Propidium iodide DNA flow cytometry (cell cycle, sub-G1). The test is classed as cell-based, human. To be noted: Kelly and NGP cells. The procedure: Cells were infected with lentiviruses encoding single guide RNAs (sgRNAs) or treated with compounds as described for the noted length of time. Cells were then liberated from adhesion to the plate using a sterile spatula (Coming®) followed by centrifugation, aspiration of media, and resuspension in hypotonic citrate-propidium iodide (PI) solution for 30 minutes at 37° C. (Tate et al. Cytometry 4:211-215 (1983)). Nuclei were stabilized using 5M NaCl prior to analysis on a FACSAria™ II (BD Biosciences). Analysis of cell cycle phases was performed using FlowJo® v10.7 (BD Biosciences).

In test [2] the test system is Kelly, NGP and SIMA NB cells. Briefly: Cell Titer-Glo cell viability / growth assay. The test is classed as cell-based, human. To be noted: 6 days, compared with (S,S) stereoisomer and A485. The procedure:
Cells were infected with lentiviruses encoding sgRNAs or treated with compounds as described. Colony assays were performed by replating cells at 500 cells per well in 6-well dishes and grown in regular growth media for 10 d before 100% methanol fixation, 0.05% crystal violet staining, and quantitation. Experiments were completed in triplicate; data shown are the average of three independent experiments. Cell Titer-Glo® assay was performed as per the manufacturer's instructions (Promega®). Briefly, 1000 cells/well were plated into 96-well plates and treated with a range of compound dosing. Cell viability was measured at the noted time points based on luminescence by the Cell Titer-Glo® assay (Promega®) and read on an Envision 2104 (PerkinElmer®, USA) according to the manufacturer's protocol.

T2 sequence (P45481 whole entry): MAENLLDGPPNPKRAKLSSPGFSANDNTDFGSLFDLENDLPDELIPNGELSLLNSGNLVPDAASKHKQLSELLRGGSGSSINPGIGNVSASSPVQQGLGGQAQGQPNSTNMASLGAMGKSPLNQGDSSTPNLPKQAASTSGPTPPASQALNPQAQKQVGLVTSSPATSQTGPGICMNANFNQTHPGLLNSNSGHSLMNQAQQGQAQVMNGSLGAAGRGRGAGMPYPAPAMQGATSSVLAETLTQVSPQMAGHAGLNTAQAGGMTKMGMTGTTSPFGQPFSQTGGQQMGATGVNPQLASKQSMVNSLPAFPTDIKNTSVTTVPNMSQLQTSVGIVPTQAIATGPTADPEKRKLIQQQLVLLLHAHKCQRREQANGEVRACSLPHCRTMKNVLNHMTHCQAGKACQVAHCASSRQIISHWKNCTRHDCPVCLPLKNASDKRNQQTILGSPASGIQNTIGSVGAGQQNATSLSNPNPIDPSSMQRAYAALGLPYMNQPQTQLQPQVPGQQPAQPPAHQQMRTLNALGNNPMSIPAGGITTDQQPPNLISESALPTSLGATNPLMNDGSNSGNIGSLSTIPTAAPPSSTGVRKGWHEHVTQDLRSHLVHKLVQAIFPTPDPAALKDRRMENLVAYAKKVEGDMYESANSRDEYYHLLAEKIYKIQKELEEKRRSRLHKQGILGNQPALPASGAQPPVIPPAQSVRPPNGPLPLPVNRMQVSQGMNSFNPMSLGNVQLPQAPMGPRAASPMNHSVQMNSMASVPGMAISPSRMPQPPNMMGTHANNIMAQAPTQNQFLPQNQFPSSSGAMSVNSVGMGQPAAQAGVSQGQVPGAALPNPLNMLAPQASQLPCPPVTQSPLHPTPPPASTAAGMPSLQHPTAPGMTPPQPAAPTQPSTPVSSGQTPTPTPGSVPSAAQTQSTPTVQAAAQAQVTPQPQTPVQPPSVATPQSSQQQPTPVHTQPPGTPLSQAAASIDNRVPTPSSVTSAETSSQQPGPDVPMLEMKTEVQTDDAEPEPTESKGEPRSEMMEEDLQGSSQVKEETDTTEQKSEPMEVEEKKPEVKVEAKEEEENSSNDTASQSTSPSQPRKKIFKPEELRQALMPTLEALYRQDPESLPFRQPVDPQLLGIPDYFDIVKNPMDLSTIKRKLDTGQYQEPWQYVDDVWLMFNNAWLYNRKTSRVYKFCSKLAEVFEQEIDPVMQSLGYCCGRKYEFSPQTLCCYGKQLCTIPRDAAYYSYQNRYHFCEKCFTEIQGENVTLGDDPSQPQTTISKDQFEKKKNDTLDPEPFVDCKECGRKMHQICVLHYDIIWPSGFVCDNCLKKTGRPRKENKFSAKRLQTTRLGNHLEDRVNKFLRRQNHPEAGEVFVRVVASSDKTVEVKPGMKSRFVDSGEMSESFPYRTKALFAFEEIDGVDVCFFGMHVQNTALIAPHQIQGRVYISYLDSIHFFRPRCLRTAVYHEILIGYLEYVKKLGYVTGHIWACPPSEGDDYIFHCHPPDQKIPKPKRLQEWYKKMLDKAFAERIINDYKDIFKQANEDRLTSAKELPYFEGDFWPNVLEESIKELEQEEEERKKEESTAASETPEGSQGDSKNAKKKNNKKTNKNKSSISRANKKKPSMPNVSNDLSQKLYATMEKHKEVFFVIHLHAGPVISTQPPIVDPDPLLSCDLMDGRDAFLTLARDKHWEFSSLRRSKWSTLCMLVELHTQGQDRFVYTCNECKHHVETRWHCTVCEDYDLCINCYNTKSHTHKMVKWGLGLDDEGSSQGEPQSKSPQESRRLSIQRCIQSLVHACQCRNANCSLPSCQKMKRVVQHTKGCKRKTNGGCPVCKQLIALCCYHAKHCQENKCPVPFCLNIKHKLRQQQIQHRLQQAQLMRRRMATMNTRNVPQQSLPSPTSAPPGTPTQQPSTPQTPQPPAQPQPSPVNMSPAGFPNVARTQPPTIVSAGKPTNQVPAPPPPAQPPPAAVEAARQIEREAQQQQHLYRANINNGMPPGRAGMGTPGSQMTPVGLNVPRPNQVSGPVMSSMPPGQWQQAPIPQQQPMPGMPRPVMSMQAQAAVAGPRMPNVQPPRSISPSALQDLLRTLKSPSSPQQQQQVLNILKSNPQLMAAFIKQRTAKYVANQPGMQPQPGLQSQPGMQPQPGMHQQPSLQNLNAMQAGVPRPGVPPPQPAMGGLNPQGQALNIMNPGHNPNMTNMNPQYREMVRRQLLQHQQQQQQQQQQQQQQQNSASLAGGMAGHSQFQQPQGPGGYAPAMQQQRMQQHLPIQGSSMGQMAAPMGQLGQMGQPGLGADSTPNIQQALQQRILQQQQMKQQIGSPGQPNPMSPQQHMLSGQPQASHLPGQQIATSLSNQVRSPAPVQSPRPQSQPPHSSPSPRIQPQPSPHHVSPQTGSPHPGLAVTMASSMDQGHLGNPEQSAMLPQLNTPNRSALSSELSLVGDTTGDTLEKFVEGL
T1 sequence (Q09472 whole entry): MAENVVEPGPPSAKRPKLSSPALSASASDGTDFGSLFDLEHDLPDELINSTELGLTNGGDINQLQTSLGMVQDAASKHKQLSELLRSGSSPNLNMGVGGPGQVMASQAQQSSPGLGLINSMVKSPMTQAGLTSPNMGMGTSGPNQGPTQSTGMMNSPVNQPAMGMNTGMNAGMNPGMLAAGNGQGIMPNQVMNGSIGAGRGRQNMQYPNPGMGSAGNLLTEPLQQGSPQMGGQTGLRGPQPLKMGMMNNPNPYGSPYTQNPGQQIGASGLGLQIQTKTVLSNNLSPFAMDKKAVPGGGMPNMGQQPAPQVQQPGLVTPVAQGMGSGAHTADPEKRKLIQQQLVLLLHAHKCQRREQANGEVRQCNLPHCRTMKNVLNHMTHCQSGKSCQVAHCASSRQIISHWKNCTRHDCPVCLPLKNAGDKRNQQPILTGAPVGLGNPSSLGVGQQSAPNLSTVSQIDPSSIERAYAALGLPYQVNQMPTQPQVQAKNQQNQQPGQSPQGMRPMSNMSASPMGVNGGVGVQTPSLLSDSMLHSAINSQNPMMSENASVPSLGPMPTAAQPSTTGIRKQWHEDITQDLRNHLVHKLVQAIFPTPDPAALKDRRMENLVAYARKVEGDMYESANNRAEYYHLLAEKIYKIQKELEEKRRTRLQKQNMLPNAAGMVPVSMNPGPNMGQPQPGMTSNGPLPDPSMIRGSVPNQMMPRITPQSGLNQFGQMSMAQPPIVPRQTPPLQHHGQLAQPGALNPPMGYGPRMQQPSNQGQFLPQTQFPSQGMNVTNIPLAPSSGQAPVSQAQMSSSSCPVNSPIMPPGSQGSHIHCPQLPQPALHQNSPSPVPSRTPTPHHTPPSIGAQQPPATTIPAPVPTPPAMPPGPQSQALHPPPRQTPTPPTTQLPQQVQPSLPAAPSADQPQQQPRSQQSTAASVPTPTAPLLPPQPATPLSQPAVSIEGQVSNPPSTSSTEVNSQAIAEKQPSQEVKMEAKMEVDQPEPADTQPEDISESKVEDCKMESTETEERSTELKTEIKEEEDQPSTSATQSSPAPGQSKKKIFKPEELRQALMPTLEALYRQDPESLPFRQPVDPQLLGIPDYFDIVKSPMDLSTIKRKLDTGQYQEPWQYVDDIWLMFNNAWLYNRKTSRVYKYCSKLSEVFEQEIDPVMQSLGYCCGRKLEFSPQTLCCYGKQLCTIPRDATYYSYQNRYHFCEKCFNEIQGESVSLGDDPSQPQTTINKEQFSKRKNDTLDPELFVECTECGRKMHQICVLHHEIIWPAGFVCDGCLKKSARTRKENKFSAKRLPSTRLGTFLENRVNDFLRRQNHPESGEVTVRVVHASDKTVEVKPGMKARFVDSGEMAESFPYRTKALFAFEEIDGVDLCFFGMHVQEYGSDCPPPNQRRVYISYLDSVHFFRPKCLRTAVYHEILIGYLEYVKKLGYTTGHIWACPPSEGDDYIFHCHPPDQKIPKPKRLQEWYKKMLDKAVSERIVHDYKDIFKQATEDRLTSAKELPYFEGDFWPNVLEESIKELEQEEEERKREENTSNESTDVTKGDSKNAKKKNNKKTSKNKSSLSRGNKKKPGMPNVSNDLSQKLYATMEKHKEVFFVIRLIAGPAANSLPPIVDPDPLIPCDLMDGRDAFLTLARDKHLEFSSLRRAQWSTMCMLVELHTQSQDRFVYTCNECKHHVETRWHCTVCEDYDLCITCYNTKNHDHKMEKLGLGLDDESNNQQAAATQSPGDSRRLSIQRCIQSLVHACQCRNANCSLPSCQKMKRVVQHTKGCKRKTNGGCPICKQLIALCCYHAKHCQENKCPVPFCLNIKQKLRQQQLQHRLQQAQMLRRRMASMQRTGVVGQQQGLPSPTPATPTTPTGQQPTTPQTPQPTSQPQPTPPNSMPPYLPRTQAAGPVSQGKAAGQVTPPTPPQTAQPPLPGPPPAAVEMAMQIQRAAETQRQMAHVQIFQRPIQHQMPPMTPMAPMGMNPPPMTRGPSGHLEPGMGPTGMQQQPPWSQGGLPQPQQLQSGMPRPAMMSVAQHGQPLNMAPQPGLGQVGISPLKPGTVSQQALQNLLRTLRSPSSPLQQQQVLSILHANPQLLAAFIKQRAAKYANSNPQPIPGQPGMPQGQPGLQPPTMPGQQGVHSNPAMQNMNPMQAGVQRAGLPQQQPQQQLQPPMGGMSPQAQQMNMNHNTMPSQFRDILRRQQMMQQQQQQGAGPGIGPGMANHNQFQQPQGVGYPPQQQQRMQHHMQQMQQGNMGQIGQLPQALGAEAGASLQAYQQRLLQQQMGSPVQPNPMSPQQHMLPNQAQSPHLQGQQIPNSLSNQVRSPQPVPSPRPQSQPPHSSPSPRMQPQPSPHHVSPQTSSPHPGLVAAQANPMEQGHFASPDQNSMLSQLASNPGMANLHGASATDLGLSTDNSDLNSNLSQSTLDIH

As for `C[C@H](N(Cc1ccc(F)cc1)C(=O)CN1C(=O)O[C@@]2(CCc3cc(NC(=O)CCCCCCCCCCCNc4ccc5c(c4)C(=O)N(C4CCC(=O)NC4=O)C5=O)ccc32)C1=O)C(F)(F)F` (stereo partly drawn) [JQAD1, 12-((2-(2,6-dioxopiperidin-3-yl)-1,3-dioxoisoindolin-5-yl)amino)-N-((R)-3′-(2-((4-fluorobenzyl)((S)-1,1,1-trifluoropropan-2-yl)amino)-2-oxoethyl)-2′,4′-dioxo-2,3-dihydrospiro[indene-1,5′-oxazolidin]-5-yl)dodecanamide], the “EP300 immunostaining of tumors” value on EP300 is listed as “loss of EP300 immunostaining compared with vehicle control tumors”. The CBP in liver entry at CBP is “CBP remained detectable by immunohistochemistry”. For the same compound, the “cell cycle / subG1 effect” value in test [1] is given as “induction of a subG1 peak”. In addition, the “IC50 in intact NB cells (comparison)” value in test [2] was “lowest IC50 concentration”.
